Measurements: US20220132852A1, “PESTICIDALLY ACTIVE HETEROCYCLIC DERIVATIVES WITH SULFUR CONTAINING SUBSTITUENTS” (SYNGENTA CROP PROTECTION AG, priority 2019, published 2022)

Columns and labels:
Format in all cases: in vivo
[1] = tested on: Diabrotica balteata (Corn Root Worm); assay: Example B1: Activity against Diabrotica balteata (corn root worm), sprayed maize sprouts; details: 96 h, application rate 200 ppm, L2 larvae on sprayed maize sprouts, 4 days after infestation, read-out: effect in at least one of the two categories (mortality or growth inhibition)
Description: Example B1: Activity Against Diabrotica balteata (Corn Root Worm)
Maize sprouts placed onto an agar layer in 24-well microtiter plates were treated with aqueous test solutions prepared from 10′000 ppm DMSO stock solutions by spraying. After drying, the plates were infested with L2 larvae (6 to 10 per well). The samples were assessed for mortality and growth inhibition in comparison to untreated samples 4 days after infestation.

[2] = tested on: Plutella xylostella (Diamond Back Moth); assay: Example B3: Activity against Plutella xylostella (diamond back moth), artificial diet; details: 192 h, application rate 200 ppm, eggs on artificial diet, 8 days after infestation, read-out: effect in at least one of the two categories (mortality or growth inhibition)
Description: Example B3: Activity Against Plutella xylostella (Diamond Back Moth)
24-well microtiter plates with artificial diet were treated with aqueous test solutions prepared from 10′000 ppm DMSO stock solutions by pipetting. After drying, Plutella eggs were pipetted through a plastic stencil onto a gel blotting paper and the plate was closed with it. The samples were assessed for mortality and growth inhibition in comparison to untreated samples 8 days after infestation. The following compounds gave an effect of at least 80% in at least one of the two categories (mortality or growth inhibition) at an application rate of 200 ppm: P2, P4, P5, P6, P8, P9, P10, P11, P12, P14, P15, P16, P17, P18, P19, P20, P21, P22, P23, P24, P25, P26, P27, P28, P29, P30, P31, P32, P33, P34, P35, P36, P38, P39, P40, P42, P45, P46, P47, P49, P50, P51, P52.

[3] = tested on: Spodoptera littoralis (Egyptian Cotton Leaf Worm); assay: Example B6: Activity against Spodoptera littoralis (Egyptian cotton leaf worm); details: foliar, 72 h, application rate 200 ppm, L1 larvae on sprayed cotton leaf discs, 3 days after infestation, read-out: control (mortality, anti-feeding effect or growth inhibition)
Description: Example B6: Activity Against Spodoptera littoralis (Egyptian Cotton Leaf Worm)
Cotton leaf discs were placed onto agar in 24-well microtiter plates and sprayed with aqueous test solutions prepared from 10′000 ppm DMSO stock solutions. After drying the leaf discs were infested with five L1 larvae. The samples were assessed for mortality, anti-feeding effect, and growth inhibition in comparison to untreated samples 3 days after infestation. Control of Spodoptera littoralis by a test sample is given when at least one of the categories mortality, anti-feedant effect, and growth inhibition is higher than the untreated sample.

[4] = tested on: Euschistus heros (Neotropical Brown Stink Bug); assay: Example B2: Activity against Euschistus heros (neotropical brown stink bug), sprayed soybean leaves; details: 120 h, application rate 200 ppm, N2 nymphs on sprayed soybean leaves, 5 days after infestation, read-out: effect in at least one of the two categories (mortality or growth inhibition)
Description: Example B2: Activity Against Euschistus heros (Neotropical Brown Stink Bug)
Soybean leaves on agar in 24-well microtiter plates were sprayed with aqueous test solutions prepared from 10′000 ppm DMSO stock solutions. After drying the leaves were infested with N2 nymphs. The samples were assessed for mortality and growth inhibition in comparison to untreated samples 5 days after infestation.

CCS(=O)(=O)c1cc(C2CC2)cnc1-c1cc2ccn(CC(F)(F)C(F)(F)F)c2cn1 [Compound P51, 5-(5-cyclopropyl-3-ethylsulfonyl-2-pyridyl)-1-(2,2,3,3,3-pentafluoropropyl) pyrrolo[2,3-c]pyridine]
≥ 80%: percent effect (mortality or growth inhibition) at 200 ppm [1] | percent effect (mortality or growth inhibition) at 200 ppm [2] | percent control (mortality, anti-feedant effect or growth inhibition) at 200 ppm [3]

CCSc1cc(C2CC2)c[n+]([O-])c1-c1cc2ncn(CC(F)(F)C(F)(F)F)c2cn1 [PN4, 6-(5-cyclopropyl-3-ethylsulfanyl-1-oxido-pyridin-1-ium-2-yl)-3-(2,2,3,3,3-pentafluoropropyl)imidazo[4,5-c]pyridine]
≥ 80%: percent effect (mortality or growth inhibition) at 200 ppm [4]

CCS(=O)(=O)c1ccc(-n2cncn2)nc1-c1cc2ccn(CC(F)(F)C(F)(F)F)c2cn1 [Compound P35, 5-[3-ethylsulfonyl-6-(1,2,4-triazol-1-yl)-2-pyridyl]-1-(2,2,3,3,3-pentafluoropropyl) pyrrolo[2,3-c]pyridine]
≥ 80%: percent effect (mortality or growth inhibition) at 200 ppm [1] | percent effect (mortality or growth inhibition) at 200 ppm [2] | percent control (mortality, anti-feedant effect or growth inhibition) at 200 ppm [3]

CCS(=O)(=O)c1cc(NC)cnc1-c1cc2ccn(CC(F)(F)C(F)(F)F)c2cn1 [Compound P18, 5-ethylsulfonyl-N-methyl-6-[1-(2,2,3,3,3-pentafluoropropyl)pyrrolo[2,3-c]pyridin-5-yl]pyridin-3-amine]
≥ 80%: percent effect (mortality or growth inhibition) at 200 ppm [1] | percent effect (mortality or growth inhibition) at 200 ppm [4] | percent effect (mortality or growth inhibition) at 200 ppm [2] | percent control (mortality, anti-feedant effect or growth inhibition) at 200 ppm [3]

CCS(=O)(=O)c1cc(C2CC2)cnc1-c1cc2cnn(CC(F)(F)C(F)(F)F)c2cn1 [Compound P28, 5-(5-cyclopropyl-3-ethylsulfonyl-2-pyridyl)-1-(2,2,3,3,3-pentafluoropropyl) pyrazolo[3,4-c] pyridine]
≥ 80%: percent effect (mortality or growth inhibition) at 200 ppm [1] | percent effect (mortality or growth inhibition) at 200 ppm [4] | percent effect (mortality or growth inhibition) at 200 ppm [2] | percent control (mortality, anti-feedant effect or growth inhibition) at 200 ppm [3]

CCSc1cc(C2CC2)cnc1-c1cc2ncn(CC(F)(F)C(F)(F)F)c2cn1 [Compound P9, 6-(5-cyclopropyl-3-ethylsulfanyl-2-pyridyl)-3-(2,2,3,3,3-pentafluoropropyl) imidazo[4,5-c]pyridine]
≥ 80%: percent effect (mortality or growth inhibition) at 200 ppm [1] | percent effect (mortality or growth inhibition) at 200 ppm [2]

CCSc1cc(C2(C#N)CC2)cnc1-c1cc2ccn(CC(F)(F)C(F)(F)F)c2cn1 [Compound P37, 1-[5-ethylsulfanyl-6-[1-(2,2,3,3,3-pentafluoropropyl)pyrrolo[2,3-c]pyridin-5-yl]-3-pyridyl] cyclopropane-carbonitrile]
≥ 80%: percent effect (mortality or growth inhibition) at 200 ppm [1] | percent control (mortality, anti-feedant effect or growth inhibition) at 200 ppm [3]

CCS(=O)(=O)c1ccc(Cl)nc1-c1cc2cnn(CC(F)(F)C(F)(F)F)c2cn1 [Compound P49, 5-(6-chloro-3-ethylsulfonyl-2-pyridyl)-1-(2,2,3,3,3-pentafluoropropyl) pyrazolo[3,4-c]pyridine]
≥ 80%: percent effect (mortality or growth inhibition) at 200 ppm [1] | percent effect (mortality or growth inhibition) at 200 ppm [4] | percent effect (mortality or growth inhibition) at 200 ppm [2] | percent control (mortality, anti-feedant effect or growth inhibition) at 200 ppm [3]

CCS(=O)(=O)c1cc(C(C)(C)C#N)cnc1-c1cc2ccn(CC(F)(F)C(F)(F)F)c2cn1 [Compound P19, 2-[5-ethylsulfonyl-6-[1-(2,2,3,3,3-pentafluoropropyl)pyrrolo[2,3-c]pyridin-5-yl]-3-pyridyl]-2-methyl-propanenitrile]
≥ 80%: percent effect (mortality or growth inhibition) at 200 ppm [1] | percent effect (mortality or growth inhibition) at 200 ppm [4] | percent effect (mortality or growth inhibition) at 200 ppm [2] | percent control (mortality, anti-feedant effect or growth inhibition) at 200 ppm [3]

CCSc1cc(Oc2ccccn2)cnc1-c1cc2cnn(CC(F)(F)C(F)(F)F)c2cn1 [Compound P20, 5-[3-ethylsulfanyl-5-(2-pyridyloxy)-2-pyridyl]-1-(2,2,3,3,3-pentafluoropropyl) pyrazolo [3,4-c]pyridine]
≥ 80%: percent effect (mortality or growth inhibition) at 200 ppm [1] | percent effect (mortality or growth inhibition) at 200 ppm [4] | percent effect (mortality or growth inhibition) at 200 ppm [2] | percent control (mortality, anti-feedant effect or growth inhibition) at 200 ppm [3]

CCS(=O)(=O)c1cc(-n2ccc(C(F)(F)F)n2)cnc1-c1cc2cnn(CC(F)(F)C(F)(F)F)c2cn1 [Compound P45, 5-[3-ethylsulfonyl-5-[3-(trifluoromethyl)pyrazol-1-yl]-2-pyridyl]-1-(2,2,3,3,3-pentafluoropropyl) pyrazolo[3,4-c]pyridine]
≥ 80%: percent effect (mortality or growth inhibition) at 200 ppm [1] | percent effect (mortality or growth inhibition) at 200 ppm [4] | percent effect (mortality or growth inhibition) at 200 ppm [2] | percent control (mortality, anti-feedant effect or growth inhibition) at 200 ppm [3]

CCSc1cc(C(C)(C)C#N)cnc1-c1cc2ccn(CC(F)(F)C(F)(F)F)c2cn1 [Compound P29, 2-[5-ethylsulfanyl-6-[1-(2,2,3,3,3-pentafluoropropyl)pyrrolo[2,3-c]pyridin-5-yl]-3-pyridyl]-2-methyl-propanenitrile]
≥ 80%: percent effect (mortality or growth inhibition) at 200 ppm [1] | percent effect (mortality or growth inhibition) at 200 ppm [2]

CCSc1cc(-n2ccc(Cl)n2)cnc1-c1cc2cnn(CC(F)(F)C(F)(F)F)c2cn1 [Compound P39, 5-[5-(3-chloropyrazol-1-yl)-3-ethylsulfanyl-2-pyridyl]-1-(2,2,3,3,3-pentafluoropropyl) pyrazolo[3,4-c]pyridine]
≥ 80%: percent effect (mortality or growth inhibition) at 200 ppm [1] | percent effect (mortality or growth inhibition) at 200 ppm [2] | percent control (mortality, anti-feedant effect or growth inhibition) at 200 ppm [3]

CCSc1cc(C(F)(F)F)cnc1-c1cc2cnn(CC(F)(F)C(F)(F)F)c2cn1 [Compound P30, 5-[3-ethylsulfanyl-5-(trifluoromethyl)-2-pyridyl]-1-(2,2,3,3,3-pentafluoropropyl) pyrazolo[3,4-c] pyridine]
≥ 80%: percent effect (mortality or growth inhibition) at 200 ppm [1] | percent effect (mortality or growth inhibition) at 200 ppm [4] | percent effect (mortality or growth inhibition) at 200 ppm [2] | percent control (mortality, anti-feedant effect or growth inhibition) at 200 ppm [3]

CCSc1cc(C2(C#N)CC2)cnc1-c1cc2ncn(CC(F)(F)C(F)(F)F)c2cn1 [Compound P38, 1-[5-ethylsulfanyl-6-[3-(2,2,3,3,3-pentafluoropropyl)imidazo[4,5-c]pyridin-6-yl]-3-pyridyl] cyclopropane-carbonitrile]
≥ 80%: percent effect (mortality or growth inhibition) at 200 ppm [1] | percent effect (mortality or growth inhibition) at 200 ppm [4] | percent effect (mortality or growth inhibition) at 200 ppm [2] | percent control (mortality, anti-feedant effect or growth inhibition) at 200 ppm [3]

CCS(=O)(=O)c1ccc(Cl)nc1-c1cc2ccn(CC(F)(F)C(F)(F)F)c2cn1 [Compound P36, 5-(6-chloro-3-ethylsulfonyl-2-pyridyl)-1-(2,2,3,3,3-pentafluoropropyl) pyrrolo[2,3-c]pyridine]
≥ 80%: percent effect (mortality or growth inhibition) at 200 ppm [1] | percent effect (mortality or growth inhibition) at 200 ppm [2] | percent control (mortality, anti-feedant effect or growth inhibition) at 200 ppm [3]

CCSc1cc(C2(C#N)CC2)c[n+]([O-])c1-c1cc2ncn(CC(F)(F)C(F)(F)F)c2cn1 [PN8, 1-[5-ethylsulfanyl-1-oxido-6-[3-(2,2,3,3,3-pentafluoropropyl)imidazo[4,5-c]pyridin-6-yl]pyridin-1-ium-3-yl]cyclopropane-carbonitrile]
≥ 80%: percent effect (mortality or growth inhibition) at 200 ppm [4]

CCSc1cc(-n2ccc(C(F)(F)F)n2)cnc1-c1cc2cnn(CC(F)(F)C(F)(F)F)c2cn1 [Compound P50, 5-[3-ethylsulfanyl-5-[3-(trifluoromethyl)pyrazol-1-yl]-2-pyridyl]-1-(2,2,3,3,3-pentafluoropropyl) pyrazolo[3,4-c]pyridine]
≥ 80%: percent effect (mortality or growth inhibition) at 200 ppm [1] | percent effect (mortality or growth inhibition) at 200 ppm [2] | percent control (mortality, anti-feedant effect or growth inhibition) at 200 ppm [3]
